In paper PMC12464334, “Reprogramming of cancer metabolism via photoresponsive nano-PROTAC enhances pyroptosis-mediated immunotherapy” (Signal Transduction and Targeted Therapy, 2025):
Where two headings read alike, the source gives them in different places.

Assays:
HK2 = target: T1, HK2 (Mus musculus, UniProt O08528); assay: TPD analysis: intracellular HK2 level; type: cell-based, murine; settings: for time-dependent HK2 expression after washout: TNBC cells, 1 µM, 12 h treatment then washout, n = 3
T1 construct: endogenous in cells; host or cells: 4T1 cells
T1 sequence (O08528 1-917): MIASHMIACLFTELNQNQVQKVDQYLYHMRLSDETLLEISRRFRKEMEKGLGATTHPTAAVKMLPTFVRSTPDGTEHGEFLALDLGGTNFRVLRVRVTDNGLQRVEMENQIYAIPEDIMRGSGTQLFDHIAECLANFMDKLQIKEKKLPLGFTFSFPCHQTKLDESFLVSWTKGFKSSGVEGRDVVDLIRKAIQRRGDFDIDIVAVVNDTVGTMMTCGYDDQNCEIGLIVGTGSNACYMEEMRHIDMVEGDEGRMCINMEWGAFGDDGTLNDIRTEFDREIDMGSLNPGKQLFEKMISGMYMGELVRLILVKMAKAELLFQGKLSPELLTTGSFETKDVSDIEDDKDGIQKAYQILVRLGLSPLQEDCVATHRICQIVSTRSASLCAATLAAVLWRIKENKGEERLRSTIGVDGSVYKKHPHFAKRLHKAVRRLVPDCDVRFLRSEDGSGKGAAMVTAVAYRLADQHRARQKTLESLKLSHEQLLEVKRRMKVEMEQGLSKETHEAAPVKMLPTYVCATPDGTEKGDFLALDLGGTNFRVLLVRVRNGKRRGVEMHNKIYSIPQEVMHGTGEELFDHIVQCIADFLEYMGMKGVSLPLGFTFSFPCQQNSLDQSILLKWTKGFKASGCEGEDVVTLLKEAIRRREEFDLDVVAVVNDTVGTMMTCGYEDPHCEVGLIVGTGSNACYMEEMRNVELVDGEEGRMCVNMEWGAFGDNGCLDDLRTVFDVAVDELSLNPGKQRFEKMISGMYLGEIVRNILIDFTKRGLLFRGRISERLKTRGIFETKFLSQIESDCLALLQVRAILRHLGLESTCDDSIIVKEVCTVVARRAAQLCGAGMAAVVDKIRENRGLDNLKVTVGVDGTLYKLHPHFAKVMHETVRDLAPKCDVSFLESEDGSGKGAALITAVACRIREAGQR

4T1 cells [1] = assay: Intracellular ROS generation (DCFH-DA); type: cell-based, murine; settings: 1 μM, 12 h, +L (40 mW, 500 s), hypoxia 1% O2, DCFH-DA
Procedure: Diacetyldichlorofluorescein (DCFH-DA; Cat. No. 4091-99-0, Sigma Aldrich) was used to detect intracellular ROS. […] The cells were then incubated with DCFH-DA for 30 min and subsequently exposed to photoirradiation for 500 s at a power of 40 mW. NIRF images were captured via CLSM.

[2] = tested on: orthotopic 4T1 TNBC tumor; assay: Tumor inhibition in orthotopic TNBC mouse model; type: in vivo; settings: for complete regression (CR), mice with CR / mice in group: i.v. equivalent 5 mg/kg VPF, n = 5
Procedure: BL imaging was conducted every 4 days following the intraperitoneal injection of D-luciferin. The tumor volumes and body weights were measured every 2 days. Mice with tumor volumes exceeding 500 mm^3 were considered deceased.

[3] = parameters: method as in doi:10.1016/j.dyepig.2020.108598; settings: reference value used for calculation; cited from earlier work
[4] = ROS generation, DPBF bleaching assay under 671 nm laser; type: physicochemical; settings: 671 nm laser 40 mW, calculated relative to VPF, n = 5
Procedure: The morphology in distilled water was observed via transmission electron microscopy (TEM; Philips). UV‒vis and fluorescence spectra were measured via a UV‒vis spectrometer (Agilent Technologies) and a fluorescence spectrometer (Hitachi), respectively. ROS generation was quantified via a bleaching assay using 1,3-diphenylisobenzofuran (DPBF; Cat. No. 105481; Sigma Aldrich).
(§1) AVPF and ANanoTAC represent the absorbance at the excitation wavelength (671 nm), whereas SVPF and SNanoTAC denote the slopes of the absorbance intensity over time. […] The resulting data were plotted, and kcat/KM was determined via Prism 10 software (GraphPad).

Cat-B = target: T2, Cat-B (Homo sapiens, UniProt P07858); assay: Enzymatic cleavage by Cat-B (LC/MS, HPLC); type: biochemical; settings: pH 5.5 MES buffer, 37 °C
T2 construct: purchased R&D systems 953CY
Procedure: as §1

Cat-E = target: T3, Cat-E (Homo sapiens, UniProt P14091); assay: Enzymatic cleavage by Cat-E; type: biochemical; settings: pH 5.5 MES buffer, 37 °C, LC/MS
T3 construct: purchased R&D Systems 1294-AS
T3 sequence (P14091 54-396): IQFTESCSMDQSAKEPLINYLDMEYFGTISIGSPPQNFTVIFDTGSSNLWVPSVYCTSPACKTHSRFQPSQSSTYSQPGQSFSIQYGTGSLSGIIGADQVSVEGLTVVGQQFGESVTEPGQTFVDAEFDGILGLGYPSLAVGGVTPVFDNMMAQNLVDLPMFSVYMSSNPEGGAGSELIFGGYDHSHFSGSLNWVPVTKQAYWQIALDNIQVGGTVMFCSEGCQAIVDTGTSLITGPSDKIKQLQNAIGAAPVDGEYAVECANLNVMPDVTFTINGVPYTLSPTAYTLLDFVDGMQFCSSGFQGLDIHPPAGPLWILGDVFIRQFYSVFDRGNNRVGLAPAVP
Procedure: as §1, with “The cleavage rate of each sample was calculated by comparing the peak area to that of an equivalent amount of NanoTAC prior to enzyme incubation. The” for “The”

Cat-L = target: T4, Cat-L (Homo sapiens, UniProt P07711); assay: Enzymatic cleavage by Cat-L; type: biochemical; settings: pH 5.5 MES buffer, 37 °C, LC/MS
T4 construct: purchased R&D Systems 952-CY
Procedure: as §1, with “The cleavage rate of each sample was calculated by comparing the peak area to that of an equivalent amount of NanoTAC prior to enzyme incubation. The” for “The”

Cat-D = target: T5, Cat-D (Homo sapiens, UniProt P07339); assay: Enzymatic cleavage by Cat-D; type: biochemical; settings: pH 5.5 MES buffer, 37 °C, LC/MS
T5 construct: purchased R&D Systems 1014-AS
Procedure: as §1, with “The cleavage rate of each sample was calculated by comparing the peak area to that of an equivalent amount of NanoTAC prior to enzyme incubation. The” for “The”

caspase-3 (CASP3) = target: T6, caspase-3 (CASP3) (Homo sapiens, UniProt P42574); assay: Enzymatic cleavage by caspase-3; type: biochemical; settings: pH 5.5 MES buffer, 37 °C, LC/MS
T6 construct: purchased R&D Systems 707-C3/CF
T6 sequence (P42574 29-175 limits assumed): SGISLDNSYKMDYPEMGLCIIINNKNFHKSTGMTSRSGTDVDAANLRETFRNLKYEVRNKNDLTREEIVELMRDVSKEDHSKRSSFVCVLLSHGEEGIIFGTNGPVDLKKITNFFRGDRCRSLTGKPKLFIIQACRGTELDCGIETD
T6 sequence (P42574 176-277 limits assumed): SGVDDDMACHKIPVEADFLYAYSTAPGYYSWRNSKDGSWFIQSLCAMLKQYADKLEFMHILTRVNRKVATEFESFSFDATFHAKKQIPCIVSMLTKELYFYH
Procedure: as §1, with “The cleavage rate of each sample was calculated by comparing the peak area to that of an equivalent amount of NanoTAC prior to enzyme incubation. The” for “The”

[5] = target: T7, matrix metalloproteinase-9 (MMP-9) (Homo sapiens, UniProt P14780); assay: Enzymatic cleavage by MMP-9; type: biochemical; settings: pH 5.5 MES buffer, 37 °C, LC/MS
T7 construct: purchased R&D Systems 911-MP
Procedure: as §1, with “The cleavage rate of each sample was calculated by comparing the peak area to that of an equivalent amount of NanoTAC prior to enzyme incubation. The” for “The”

[6] = tested on: orthotopic 4T1 TNBC tumor; settings: tumors on day 3, flow cytometry, n = 5
Procedure: Following treatment of the TNBC mouse model described above, tumor tissues were collected on day 3 for immune cell population analyses. Single cells were isolated from the tumor samples via a tumor dissociation kit (Cat. No. 130-096-730; Miltenyi Biotechnology). An equal number of cells were incubated with FcBlock (Cat. No. 553142, BD Biosciences) for 5 min to prevent nonspecific IgG binding and then stained with appropriate antibodies to identify the populations of CRT-positive tumor cells (CD45^−CRT^+), mature DCs, CTLs, and regulatory T cells. As in the coculture study, HMGB1 and HSP70 in the tumor supernatants were assessed by western blot, while IL-18, IL-1β, TNF-α, IFN-γ, and IL-10 were measured via ELISA kits.

rechallenged 4T1 TNBC = settings: day 15 after tumor rechallenge, ELISA, n = 3
Procedure: Sixteen days post-treatment, TNBC mice were inoculated with 4T1 cells (2 × 10^5 cells per mouse) into the fourth mammary fat pad opposite the primary TNBC site. Rechallenged tumor volumes were measured every 2 days. Fifteen days after tumor rechallenge, the population of splenic Tem cells (CD3^+; CD8^+; CD44^+ [Cat. No. 103016, Biolegend]; CD62L^low [Cat. No. 104407, Biolegend]) was analyzed via flow cytometry. Finally, the serum levels of IFN-γ, IL-6, and TNF-α were quantified via ELISA.

4T1 cells [7] = settings: without photoirradiation, absence (migration) or presence (invasion) of collagen, n = 5

T4 sequence (P07711 114-333): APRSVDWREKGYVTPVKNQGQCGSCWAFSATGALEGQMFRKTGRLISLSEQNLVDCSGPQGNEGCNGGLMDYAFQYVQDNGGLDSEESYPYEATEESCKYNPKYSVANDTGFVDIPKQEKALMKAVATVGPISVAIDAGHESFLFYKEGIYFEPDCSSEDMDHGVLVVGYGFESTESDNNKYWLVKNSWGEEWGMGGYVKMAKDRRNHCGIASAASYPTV
T5 sequence (P07339 65-412): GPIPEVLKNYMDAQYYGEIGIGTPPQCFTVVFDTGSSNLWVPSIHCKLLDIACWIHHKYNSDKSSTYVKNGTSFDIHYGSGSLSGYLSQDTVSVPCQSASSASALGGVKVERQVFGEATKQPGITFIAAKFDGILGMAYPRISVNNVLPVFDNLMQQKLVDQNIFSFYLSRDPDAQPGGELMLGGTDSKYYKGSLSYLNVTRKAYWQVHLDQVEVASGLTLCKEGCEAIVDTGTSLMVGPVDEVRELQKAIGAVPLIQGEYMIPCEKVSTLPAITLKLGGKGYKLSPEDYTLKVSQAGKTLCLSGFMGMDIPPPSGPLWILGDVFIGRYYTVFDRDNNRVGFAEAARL
T7 sequence (P14780 94-707): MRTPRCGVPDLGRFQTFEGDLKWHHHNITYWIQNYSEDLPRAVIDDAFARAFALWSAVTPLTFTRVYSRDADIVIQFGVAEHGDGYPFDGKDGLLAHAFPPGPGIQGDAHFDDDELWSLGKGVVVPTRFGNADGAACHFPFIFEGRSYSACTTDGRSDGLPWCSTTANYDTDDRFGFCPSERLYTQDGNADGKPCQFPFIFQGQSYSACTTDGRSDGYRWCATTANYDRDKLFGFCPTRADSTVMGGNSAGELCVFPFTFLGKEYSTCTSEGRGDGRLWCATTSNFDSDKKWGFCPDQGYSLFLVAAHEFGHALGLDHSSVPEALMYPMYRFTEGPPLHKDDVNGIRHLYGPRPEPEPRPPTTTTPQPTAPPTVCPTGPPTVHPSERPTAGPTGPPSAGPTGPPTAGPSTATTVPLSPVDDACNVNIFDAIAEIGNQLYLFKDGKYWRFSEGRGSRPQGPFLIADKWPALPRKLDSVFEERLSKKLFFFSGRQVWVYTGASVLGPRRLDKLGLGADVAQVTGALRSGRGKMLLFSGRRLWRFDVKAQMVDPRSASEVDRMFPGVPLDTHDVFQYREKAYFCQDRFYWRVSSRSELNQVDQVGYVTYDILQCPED

Compound: O=C(O)c1nn(Cc2ccc(Cl)cc2Cl)c2ccccc12 [lonidamine, reference compound]
- time-dependent HK2 expression after washout (HK2): initial reduction in the intracellular HK2 level followed by eventual regeneration

Compound: verteporfin [VPF, reference compound]
- reduction of ROS production under hypoxia compared with normoxia (4T1 cells [1]): 79.1%
- complete regression (CR), mice with CR / mice in group ([2]; +L (200 mW, 15 min)): 0/5
- ROS quantum yield (Φ) [3]: 0.78

Compound: VPF-KRRPIYPALAK-lonidamine [NanoTAC]
- ROS quantum yield (Φ) [4]: ≈ 0.7823
- cleavage in presence of Cat-B with irreversible cysteine protease inhibitor (Cat-B; Cat-B with Z-FA-FMK, LC/MS): no detectable cleavage
- catalytic efficiency (kcat/KM) (Cat-B; NanoTAC 5-80 μM, 5 μg Cat-B, HPLC): 27,898 M^−1S^−1
- time for conversion into PROTAC and lysine-conjugated VPF (K-VPF) with Cat-B (Cat-B; LC/MS): ≤ 1 h
- cleavage by Cat-E (Cat-E): no cleavage behavior
- cleavage by Cat-L (Cat-L): no cleavage behavior
- cleavage by Cat-D (Cat-D): no cleavage behavior
- cleavage by CASP3 (caspase-3 (CASP3)): no cleavage behavior
- cleavage by MMP-9 [5]: no cleavage behavior
- intracellular HK2 level after treatment (HK2; 4T1 cells, 1 μM, 12 h, anti-HK2 staining, CLSM): significantly decreased intracellular HK2 levels
- time-dependent HK2 expression after washout (HK2): sustained degradation of the target protein
- reduction of ROS production under hypoxia compared with normoxia (4T1 cells [1]): 36.1%
- survival of TNBC mice ([2]; +L, n = 5, log-rank test): significantly prolonged survival
- complete regression (CR), mice with CR / mice in group ([2]; +L (200 mW, 15 min)): 3/5
- complete regression (CR), mice with CR / mice in group ([2]; −L): 0/5
- intratumoral Treg population, NanoTAC (+L) relative to NanoTAC (−L) [6]: 72.01%
- intratumoral Treg population, NanoTAC (+L) relative to VPF (+L) [6]: 44.81%
- serum IFN-γ, fold of NanoTAC (+L)-treated CR mice over naive mice (rechallenged 4T1 TNBC): 1.33 fold
- serum IL-6, fold of NanoTAC (+L)-treated CR mice over naive mice (rechallenged 4T1 TNBC): 1.32 fold
- serum TNF-α, fold of NanoTAC (+L)-treated CR mice over naive mice (rechallenged 4T1 TNBC): 1.4 fold
- migratory and invasive phenotypes (4T1 cells [7]): reduced migratory and invasive phenotypes
